According to patent US7632413B2, “Process for treating a liquid medium using ultrasound” (Ashland Licensing and Intellectual Property LLC, priority 2002, dated 2009):

Tested on: K562 cells
Test: Annexin-V/PI assay of ultrasonically induced apoptosis in the presence of active oxygen scavengers
Format: cell-based, Human
Conditions: L-histidine 10 mM and/or mannitol 100 mM; for percentage of cells displaying phosphatidylserine externalization: 5 hours post-treatment, mean ± SEM, 4 experiments
Experimental: Human leukemia cell lines (K562, Nalm-6, KG1a, and HL-60) obtained from the American Type Culture Collection (ATCC, Rockville, Md., USA) were grown in RPMI-1640 (BioWhittaker, Walkersville, Md., USA) supplemented with 10% fetal calf serum (Gibco, Grand Island, N.Y., USA) and 1% L-glutamine (Gibco). Leukemic cells were harvested, resuspended in phosphate-buffered saline (PBS, pH=7.2, Gibco), and immediately used for the experiment. Heparinized venous blood was obtained from healthy volunteers and leukemic patients. Mononuclear cells were separated by Ficoll-Hypaque gradient density centrifugation (International Medical Products, Brussels, Belgium). The following describes the ultrasonic treatment on the cells. Human leukemia cell lines (K562, HL-60, KG1a, and Nalm-6), primary leukemic cells, and normal mononuclear cells were treated by ultrasound at a frequency of 1.8 MHz during various exposure times at an acoustical power of 7 mW/mL and irradiation (ON/OFF) cycles of 5.5 ms/3 ms. During apoptosis, phosphatidylserine residues flip from the inside to the outside of the plasma membrane and this change can be detected using Annexin-FITC, which binds to the PS residues. The following describes an Annexin V binding assay that was performed. Flow cytometric analysis of Annexin-V-fluorescein isothiocyanate (FITC)-and propidium iodide (PI)-stained cells was performed using the kit purchased from Biosource International (Camarillo, Calif., USA) as recommended by the manufacturer. Data were presented as dot plots showing the change in mean fluorescence intensity of Annexin-V-FITC/propidium iodide (not shown). The following procedure was performed to determine the effect of active oxygen scavengers on the induction of apoptosis by high-frequency ultrasound. K562 cells were incubated with L-histidine (10 mM) and/or mannitol (100 mM). Some cells were treated by high-frequency ultrasound and others were not. Cell apoptosis was detected by an Annexin-V/PI assay.

N[C@@H](Cc1c[nH]cn1)C(=O)O [Histidine, L-histidine]
percentage of cells displaying phosphatidylserine externalization (1 US treatment): 24 ± 8%
percentage of cells displaying phosphatidylserine externalization (3 US treatments): 36 ± 11%
percentage of cells displaying phosphatidylserine externalization (No US treatment): 15 ± 5%
inhibition of apoptosis (apoptosis induced by 3 successive ultrasound treatments): 43%

OC[C@@H](O)[C@@H](O)[C@H](O)[C@H](O)CO [Mannitol, mannitol]
percentage of cells displaying phosphatidylserine externalization (1 US treatment): 21 ± 5%
percentage of cells displaying phosphatidylserine externalization (3 US treatments): 30 ± 3%
inhibition at 100000 µM (Homo sapiens, K562, apoptosis induced by 3 successive ultrasound treatments): 47%
percentage of cells displaying phosphatidylserine externalization (No US treatment): 11 ± 4%
